From ChEMBL document CHEMBL1158872, “Four new bioactive polybrominated diphenyl ethers of the sponge Dysidea herbacea from West Sumatra, Indonesia” (J Nat Prod, 1997)
Values after ≈ are worked out from the molar mass of the structure shown. Active and inactive are the calls of the source. No cut-off for these calls is given here.

Experiments:
Cladosporium cucumerinum [1] = assay: Antimicrobial activity against Cladosporium cucumerinum at 50 nmol after 2 days by TLC based bioautography method; assay type: functional
Cladosporium cucumerinum [2] = assay: Antimicrobial activity against Cladosporium cucumerinum at 25 nmol after 2 days by TLC based bioautography method; assay type: functional
[3] = Toxicity against Artemia salina; assay type: organism-based; conditions: in vivo
Escherichia coli = assay: Antimicrobial activity against Escherichia coli; assay type: functional, organism-based

For `Oc1c(Br)cc(Br)cc1Oc1ccc(Br)cc1Br`, the “inhibition zone (IZ)” value (Cladosporium cucumerinum [1]) was 3.5 mm, the “inhibition zone (IZ)” value (Cladosporium cucumerinum [2]) was 1.5 mm and the LC50 [3] was 8.66 µg/mL (≈ 17.3 µM). For the same molecule, the Activity (Escherichia coli) was “inactive”.

In the case of `COc1c(Br)cc(Br)c(Br)c1Oc1ccccc1Br`, the LC50 [3] is reported as 26.2 µg/mL (≈ 50.9 µM) and the Activity (Escherichia coli) is reported as “inactive”.

In the case of `Oc1c(Br)c(Br)c(Br)c(Br)c1Oc1ccccc1Br`, the “inhibition zone (IZ)” value (Cladosporium cucumerinum [1]) is reported as 14 mm, the “inhibition zone (IZ)” value (Cladosporium cucumerinum [2]) is reported as 7 mm and the LC50 [3] is reported as 0.96 µg/mL (≈ 1.65 µM). For the same molecule, the Activity (Escherichia coli) was “inactive”.

For `Oc1cc(Br)c(Br)c(Br)c1Oc1ccccc1Br`, the “inhibition zone (IZ)” value (Cladosporium cucumerinum [1]) was 13 mm, the “inhibition zone (IZ)” value (Cladosporium cucumerinum [2]) was 8 mm and the LC50 [3] was 3.3 µg/mL (≈ 6.58 µM). The Activity (Escherichia coli) was “inactive”.

In the case of `Oc1c(Br)c(Br)c(Br)c(Br)c1Oc1ccc(Br)cc1Br`, the “inhibition zone (IZ)” value (Cladosporium cucumerinum [1]) is reported as 8 mm, the “inhibition zone (IZ)” value (Cladosporium cucumerinum [2]) is reported as 5 mm and the LC50 [3] is reported as 0.94 µg/mL (≈ 1.43 µM). For the same molecule, the Activity (Escherichia coli) was “inactive”.
